Drawing on US20100234351A1, “FUSED NITROGEN-COMPRISING HETEROCYCLIC COMPOUND” (TAKEDA PHARMACEUTICAL COMPANY LIMITED, priority 2006, published 2010), this text covers inhibition for twelve compounds.

Structures can show the parent of a compound that is named as a salt.

T2 sequence (P00533 669-1210): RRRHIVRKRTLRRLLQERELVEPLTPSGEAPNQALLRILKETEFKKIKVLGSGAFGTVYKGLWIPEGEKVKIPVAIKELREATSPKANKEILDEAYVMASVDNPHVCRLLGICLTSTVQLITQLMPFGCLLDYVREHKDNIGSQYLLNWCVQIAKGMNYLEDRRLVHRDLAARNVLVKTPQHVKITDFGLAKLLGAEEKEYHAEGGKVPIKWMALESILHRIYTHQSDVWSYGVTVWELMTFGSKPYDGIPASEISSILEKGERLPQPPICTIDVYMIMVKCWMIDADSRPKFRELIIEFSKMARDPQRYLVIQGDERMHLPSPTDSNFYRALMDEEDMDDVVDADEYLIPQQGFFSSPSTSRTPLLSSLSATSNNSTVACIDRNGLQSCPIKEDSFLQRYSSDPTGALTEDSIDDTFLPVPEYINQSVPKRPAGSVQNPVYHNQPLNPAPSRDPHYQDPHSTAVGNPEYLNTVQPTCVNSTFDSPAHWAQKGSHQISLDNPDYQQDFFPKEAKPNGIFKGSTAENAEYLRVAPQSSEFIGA

For one experiment, the target named is T1, HER2 intracellular domain (Homo sapiens, UniProt P04626).
T1 construct: made in house; host or cells: SF-21 insect cells infected with recombinant baculovirus BAC-HER2
T1 sequence (P04626 676-1255): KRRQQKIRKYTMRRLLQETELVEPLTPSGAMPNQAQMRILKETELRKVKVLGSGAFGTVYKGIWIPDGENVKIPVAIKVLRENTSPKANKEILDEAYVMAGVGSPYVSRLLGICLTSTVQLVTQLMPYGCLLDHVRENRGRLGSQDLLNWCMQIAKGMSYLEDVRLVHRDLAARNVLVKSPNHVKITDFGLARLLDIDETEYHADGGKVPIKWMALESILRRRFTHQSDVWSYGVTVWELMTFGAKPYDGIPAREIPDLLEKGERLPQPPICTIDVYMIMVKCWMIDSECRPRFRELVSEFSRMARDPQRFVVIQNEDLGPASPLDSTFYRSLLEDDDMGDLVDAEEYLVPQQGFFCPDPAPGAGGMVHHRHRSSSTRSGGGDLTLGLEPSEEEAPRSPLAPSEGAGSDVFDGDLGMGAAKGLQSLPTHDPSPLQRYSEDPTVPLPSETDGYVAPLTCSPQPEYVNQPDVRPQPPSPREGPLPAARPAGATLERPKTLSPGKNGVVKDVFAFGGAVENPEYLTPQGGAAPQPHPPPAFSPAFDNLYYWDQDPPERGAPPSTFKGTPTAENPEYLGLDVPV
The experiment in a line: Measurement of HER2 kinase inhibitory activity. It counts as biochemical. Conditions: compound 1.0 μM, poly-Glu:Tyr (4:1) substrate, [γ-32P]ATP, read-out: Inhibitory rate (%) at 1.0 μM. The method, then:
Human HER2 gene was cloned by RT-PCR using total RNA prepared from MCF7 cells as a template. The primer used for RT-PCR was prepared from base sequence (Genbank Accession No. M11730) information of HER2 gene, adding base sequence encoding DYKDDDD peptide and a restriction enzyme recognition sequence to a nucleotide sequence (2176-3918 of Genbank Accession No. M11730 as a base, and corresponding to 676-1255 amino acid of Genbank Accession No. NP_004439 as a protein) encoding the HER2 intracellular domain region, so that a DYKDDDD peptide tag would be attached to the N-terminus of the protein. The base sequence of the primer is shown in below.
The RT reaction was performed using Superscript First-Strand Synthesis System for RT-PCR (Invitrogen) and the PCR reaction was performed using KOD-plus kit (TOYOBO). The obtained PCR product was electrophoresed on agarose gel (1%), and the DNA fragment amplified by PCR was recovered from the gel, and then digested with restriction enzymes Sal I and Sph I. The DNA treated with the restriction enzymes was electrophoresed on agarose gel (1%), and the obtained DNA fragment was recovered and ligated to plasmid pFASTBAC1 (Invitrogen) digested with restriction enzymes Sal I and Sph I to give expression plasmid pFB-HER2. The base sequence of the inserted fragment was confirmed and found to be identical with the base sequence of HER2 intracellular domain (2176-3918 of Genbank Accession M11730). Furthermore, using BAC-TO-BAC Baculovirus Expression System (Invitrogen), recombinant baculovirus BAC-HER2 was prepared.
SF-21 cells were sown at 1×10^6 cells/mL to 1 L of Sf-900II SFM medium (Invitrogen) containing 10% fetal calf serum (trace), 50 mg/L gentamicin (Invitrogen) and 0.1% Pluronic F-68 (Invitrogen), and cultured with shaking in 2 L volume Erlenmeyer flask at 27° C., 100 rpm. After culturing for 24 hr, recombinant baculovirus BAC-HER2 (13.4 mL) was added thereto, and the cells were further cultured for 3 days. The culture medium was centrifuged at 2,000 rpm for 5 min to give virus-infected cells. The infected cells were washed with phosphate buffered saline (Invitrogen), centrifuged under the same conditions, and preserved at −80° C. The cryopreserved cells were thawed in ice and suspended in buffer A (50 mM Tris buffer (30 mL, pH 7.4) containing 20% glycerol, 0.15 M NaCl) supplemented with Complete Protease Inhibitor (Boehringer). The cells were ruptured 3 times with a Polytron homogenizer (Kinematica) at 20,000 rpm for 30 sec. The disrupt was clarified by centrifugation at 40,000 rpm for 30 min and filtered with a 0.45 μm filter. The filtrate was passed through a column packed with Anti-FLAG M2 Affinity Gel (4 mL, Sigma Aldrich CO.) at a flow rate of about 0.5 mL/min. The column was washed with buffer A, and eluted with buffer A containing 100 μg/mL of FLAG peptide. The eluate was concentrated with Vivaspin 20 (Vivascience) having a molecular weight cut off of 30K. The concentrate was purified by gel filtration using Hi-Load 16/60 Superdex 200pg (GE Healthcare Bioscience) equilibrated with buffer A. The fractions containing HER2 intracellular domain were collected and cryopreserved at −80° C.
HER2 kinase reaction was carried out using 96-well plate. As a buffer for Kinase reaction, a buffer of a composition of 50 mM Tris-HCl (pH 7.5), 5 mM MnCl2, 2 mM dithiothreitol and 0.01% Tween-20 was used. The compound of the present invention was dissolved in dimethyl sulfoxide (DMSO), and diluted with a buffer for kinase reaction so that the DMSO concentration would become 0.1% during kinase reaction. The compound solution (10 μL) was mixed with a buffer for kinase reaction (20 μL) containing the HER2 intracellular domain (0.625 μg/mL) obtained in Experimental Example 1B and a polypeptide substrate poly-Glu:Tyr (4:1) (12.5 μg/mL, Sigma Ltd.) and the mixture was stood for 5 min at room temperature. […]
In the case of `CCOC(=O)/C=C/C1=Cc2c(ncnc2Nc2ccc(Oc3cccc(C(=O)NC(C)(C)C)c3)c(Cl)c2)NCC1` [Example 246, ethyl (2E)-3-{4-[(4-{3-[(tert-butylamino)carbonyl]phenoxy}-3-chlorophenyl)amino]-8,9-dihydro-7H-pyrimido[4,5-b]azepin-6-yl}acrylate], the inhibition at 1 µM was determined as 98%.
The same measure, in the same setting: the value for `CC(C)(C)NC(=O)c1cccc(Oc2ccc(Nc3ncnc4c3C=C(CNCCF)CCN4)cc2Cl)c1` [Example 234, N-(tert-butyl)-3-{2-chloro-4-[(6-{[(2-fluoroethyl)amino]methyl}-8,9-dihydro-7H-pyrimido[4,5-b]azepin-4-yl)amino]phenoxy}benzamide] was 98%; that for `CC(C)(C)NC(=O)c1cccc(Oc2ccc(Nc3ncnc4c3C=C(/C=N/OCCO)CCN4)cc2Cl)c1` [Example 231, N-(tert-butyl)-3-{2-chloro-4-[(6-{[(2-hydroxyethoxy)imino]methyl}-8,9-dihydro-7H-pyrimido[4,5-b]azepin-4-yl)amino]phenoxy}benzamide] was 97%.
As to `COC(=O)C1=Cc2c(ncnc2Nc2cnc(Oc3cccc(C(=O)NC(C)(C)C)c3)c(Cl)c2)NCC1` [Example 220, methyl 4-[(6-{3-[(tert-butylamino)carbonyl]phenoxy}-5-chloropyridin-3-yl)amino]-8,9-dihydro-7H-pyrimido[4,5-b]azepine-6-carboxylate], the inhibition at 1 µM was 96%.
Turning to `CC(C)(CS(=O)(=O)CCO)NC(=O)C1=Cc2c(ncnc2Nc2ccc(Oc3cccc(S(=O)(=O)CC4CC4)c3)c(Cl)c2)NCC1` [Example 227, 4-[(3-chloro-4-{3-[(cyclopropylmethyl)sulfonyl]phenoxy}phenyl)amino]-N-{2-[(2-hydroxyethyl)sulfonyl]-1,1-dimethylethyl}-8,9-dihydro-7H-pyrimido[4,5-b]azepine-6-carboxamide], the inhibition at 1 µM is 93%.
`CC(C)(CS(=O)(=O)CCO)NC(=O)C1=Cc2c(ncnc2Nc2ccc(Oc3cccc(C(F)(F)F)c3)c(Cl)c2)NCC1` [Example 172, 4-({3-chloro-4-[3-(trifluoromethyl)phenoxy]phenyl}amino)-N-{2-[(2-hydroxyethyl)sulfonyl]-1,1-dimethylethyl}-8,9-dihydro-7H-pyrimido[4,5-b]azepine-6-carboxamide]: the inhibition at 1 µM was 95%.
Still for that read-out and setting: the value for `CC(C)(C)OC(=O)N1CCC(Oc2ccc(Nc3ncnc4c3C=C(CO)CCN4)cc2Cl)CC1` [Example 146, tert-butyl 4-(2-chloro-4-{[6-(hydroxymethyl)-8,9-dihydro-7H-pyrimido[4,5-b]azepin-4-yl]amino}phenoxy)piperidine-1-carboxylate] was 92%.
With `CN(CCS(C)(=O)=O)CC1=Cc2c(ncnc2Nc2ccc(Oc3cccc(C(=O)NC(C)(C)C)c3)c(Cl)c2)NCC1` [Example 242, N-(tert-butyl)-3-(2-chloro-4-{[6-({methyl[2-(methylsulfonyl)ethyl]amino}methyl)-8,9-dihydro-7H-pyrimido[4,5-b]azepin-4-yl]amino}phenoxy)benzamide], the inhibition at 1 µM came to 99%.
Same read-out and setting: the value for `CC(C)(C)NC(=O)c1cccc(Oc2ccc(Nc3ncnc4c3C=C(CNC(C)(C)CS(=O)(=O)CCO)CCN4)cc2Cl)c1` [Example 214, N-(tert-butyl)-3-[2-chloro-4-({6-[({2-[(2-hydroxyethyl)sulfonyl]-1,1-dimethylethyl}amino)methyl]-8,9-dihydro-7H-pyrimido[4,5-b]azepin-4-yl}amino)phenoxy]benzamide dihydrochloride] was 99%.
Turning to `COC(=O)C1=Cc2c(ncnc2Nc2ccc(Oc3cccc(C(=O)NC(C)(C)C)c3)c(Cl)c2)NCC1` [Example 135, methyl 4-[(4-{3-[(tert-butylamino)carbonyl]phenoxy}-3-chlorophenyl)amino]-8,9-dihydro-7H-pyrimido[4,5-b]azepine-6-carboxylate], the inhibition at 1 µM was 97%.

A further experiment addresses T2, EGFR intracellular domain (Homo sapiens, UniProt P00533).
T2 construct: made in house; host or cells: SF-21 insect cells infected with recombinant baculovirus BAC-EGFR
The experiment in a line: Assay of EGFR kinase inhibitory activity. It counts as biochemical. Conditions: compound 1.0 μM, poly-Glu:Tyr (4:1) substrate, [γ-32P]ATP, read-out: Inhibitory rate (%) at 1.0 μM. The method, then: Human EGFR gene was cloned by RT-PCR using total RNA prepared from A431 cell as a template. The primer used for RT-PCR was prepared from base sequence (Genbank Accession No. X00588) information of EGFR gene, adding DYKDDDD base sequence encoding the peptide and a restriction enzyme recognition sequence to a base sequence (2191-3819 of Genbank Accession No. X00588 as a base, and corresponding to 669-1210 amino acid of Genbank Accession No. NP_005219 as a protein) encoding the EGFR intracellular domain, so that a DYKDDDD peptide tag would be attached to the N-terminus of the protein. The base sequence of the primer is shown in below.
The RT reaction was performed using Superscript First-Strand Synthesis System for RT-PCR (Invitrogen), and PCR reaction was performed using KOD-plus kit (TOYOBO). The obtained PCR product was electrophoresed on agarose gel (1%), and the DNA fragment amplified by PCR was recovered from the gel, and then digested with restriction enzymes Sal I and Sph I. The DNA treated with the restriction enzymes was electrophoresed on agarose gel (1%), and the obtained DNA fragment was recovered and ligated to plasmid pFASTBAC1 (Invitrogen) digested with restriction enzymes Sal I and Sph I to give expression plasmid pFB-EGFR. The base sequence of the inserted fragment was confirmed and found to be identical with the base sequence of the EGFR intracellular domain (2191-3819 of Genbank Accession X00588). Furthermore, virus stock BAG-EGFR of recombinant Baculovirus was prepared using BAC-TO-BAC Baculovirus Expression System (Invitrogen).
SF-21 cells were sown at 1×10^6 cells/mL to 1 L of Sf-900II SFM medium (Invitrogen) containing 10% fetal calf serum (trace), 50 mg/L Gentamicin (Invitrogen) and 0.1% Pluronic F-68 (Invitrogen), and cultured with shaking in a 2 L Erlenmeyer flask at 27° C., 100 rpm. After culture for 24 hr, recombinant Baculovirus BAC-EGFR (13.4 mL) was added thereto, and the cells were further cultured for 3 days. The culture medium was centrifuged at 2,000 rpm for 5 min to give virus infected cells. The infected cells were washed with phosphate buffered saline (Invitrogen), centrifuged under the same conditions, and preserved at −80° C. The cryopreserved cells were thawed in ice and suspended in 30 mL of buffer A containing Complete Protease Inhibitor (Boehringer) (50 mM tris buffer (pH 7.4) containing 20% Glycerol, 0.15 M NaCl). The cells were disrupted 3 times at 20,000 rpm for 30 sec using a polytron homogenizer (Kinematica). The disrupt was clarified by centrifugation at 40,000 rpm for 30 min and filtered through a 0.45 μm filter. The filtrate was passed through a column packed with 4 mL of Anti-FLAG M2 Affinity Gel (Sigma Aldrich Co.) at a flow rate of about 0.5 mL/min. The column was washed with buffer A, and eluted with buffer A containing 100 μg/mL of FLAG peptide. The eluate was concentrated with Vivaspin 20 having a molecular weight cut off of 30 K (Vivascience). The concentrate was purified by gel filtration using Hi-Load 16/60 Superdex 200 pg (GE Healthcare Bioscience) equilibrated with buffer A. The fractions containing EGFR intracellular domain were collected and cryopreserved at −80° C.
EGFR kinase reaction was carried out using a 96-well plate. As a buffer for Kinase reaction, a buffer of a composition of 50 mM Tris-HCl (pH 7.5), 5 mM MnCl2, 2 mM dithiothreitol and 0.01% Tween-20 was used. […]
With `O=C(NCC(O)CO)C1=Cc2c(ncnc2Nc2ccc(Oc3cccc(C(F)(F)F)c3)c(Cl)c2)NCC1` (stereo not drawn) [Example 136, 4-({3-chloro-4-[3-(trifluoromethyl)phenoxy]phenyl}amino)-N-(2,3-dihydroxypropyl)-8,9-dihydro-7H-pyrimido[4,5-b]azepine-6-carboxamide], the inhibition at 1 µM worked out at 97%.
Regarding `O=C(NCCS(=O)(=O)CCO)C1=Cc2c(ncnc2Nc2ccc(Oc3cccc(C(F)(F)F)c3)c(Cl)c2)NCC1` [Example 147, 4-({3-chloro-4-[3-(trifluoromethyl)phenoxy]phenyl}amino)-N-{2-[(2-hydroxyethyl)sulfonyl]ethyl}-8,9-dihydro-7H-pyrimido[4,5-b]azepine-6-carboxamide], the inhibition at 1 µM worked out at 95%.
